Experimental data as given in ChEMBL document CHEMBL5678818, “Discovery of potent SOS1 inhibitors that block RAS activation via disruption of the RAS-SOS1 interaction” (Proc Natl Acad Sci U S A, 2019).

Assays:
[1] = test system: Phosphatidylinositol 4,5-bisphosphate 3-kinase catalytic subunit alpha isoform (Homo sapiens), P42336 [E545K]; assay: Inhibition of PIK3CA E545K mutant (unknown origin) assessed as residual activity at 100 nM by KINOMEscan analysis relative to control
[2] = biological target: Protein kinase C delta type (Homo sapiens) (UniProt Q05655); assay: Inhibition of PRKCD (unknown origin) assessed as residual activity at 100 nM by KINOMEscan analysis relative to control
Protein kinase C delta type (Homo sapiens), sequence (Q05655 whole entry, looked up): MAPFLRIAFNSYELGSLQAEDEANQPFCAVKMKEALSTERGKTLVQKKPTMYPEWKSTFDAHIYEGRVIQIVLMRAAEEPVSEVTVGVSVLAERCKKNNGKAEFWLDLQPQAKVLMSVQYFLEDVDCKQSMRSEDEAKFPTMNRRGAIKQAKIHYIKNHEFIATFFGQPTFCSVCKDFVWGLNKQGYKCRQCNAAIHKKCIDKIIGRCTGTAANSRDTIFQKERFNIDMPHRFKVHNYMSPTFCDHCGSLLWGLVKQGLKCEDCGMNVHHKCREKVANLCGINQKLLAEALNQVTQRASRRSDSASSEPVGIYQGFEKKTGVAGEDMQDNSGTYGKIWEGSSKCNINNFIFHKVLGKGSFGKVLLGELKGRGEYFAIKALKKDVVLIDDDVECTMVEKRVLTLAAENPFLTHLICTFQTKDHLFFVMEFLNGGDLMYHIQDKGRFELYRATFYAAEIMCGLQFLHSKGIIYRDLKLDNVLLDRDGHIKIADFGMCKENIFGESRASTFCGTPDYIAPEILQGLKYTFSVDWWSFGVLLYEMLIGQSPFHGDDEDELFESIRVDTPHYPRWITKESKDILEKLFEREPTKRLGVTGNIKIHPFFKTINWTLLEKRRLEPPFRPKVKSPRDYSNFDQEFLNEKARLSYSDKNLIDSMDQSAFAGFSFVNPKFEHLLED

[3] = test system: Leucine-rich repeat serine/threonine-protein kinase 2 (Homo sapiens), Q5S007 [G2019S]; assay: Inhibition of LRRK2 G2019S mutant (unknown origin) assessed as residual activity at 100 nM by KINOMEscan analysis relative to control
[4] = biological target: Transient receptor potential cation channel subfamily M member 6 (Homo sapiens) (UniProt Q9BX84); assay: Inhibition of TRPM6 (unknown origin) assessed as residual activity at 100 nM by KINOMEscan analysis relative to control
Transient receptor potential cation channel subfamily M member 6 (Homo sapiens), sequence (Q9BX84 whole entry): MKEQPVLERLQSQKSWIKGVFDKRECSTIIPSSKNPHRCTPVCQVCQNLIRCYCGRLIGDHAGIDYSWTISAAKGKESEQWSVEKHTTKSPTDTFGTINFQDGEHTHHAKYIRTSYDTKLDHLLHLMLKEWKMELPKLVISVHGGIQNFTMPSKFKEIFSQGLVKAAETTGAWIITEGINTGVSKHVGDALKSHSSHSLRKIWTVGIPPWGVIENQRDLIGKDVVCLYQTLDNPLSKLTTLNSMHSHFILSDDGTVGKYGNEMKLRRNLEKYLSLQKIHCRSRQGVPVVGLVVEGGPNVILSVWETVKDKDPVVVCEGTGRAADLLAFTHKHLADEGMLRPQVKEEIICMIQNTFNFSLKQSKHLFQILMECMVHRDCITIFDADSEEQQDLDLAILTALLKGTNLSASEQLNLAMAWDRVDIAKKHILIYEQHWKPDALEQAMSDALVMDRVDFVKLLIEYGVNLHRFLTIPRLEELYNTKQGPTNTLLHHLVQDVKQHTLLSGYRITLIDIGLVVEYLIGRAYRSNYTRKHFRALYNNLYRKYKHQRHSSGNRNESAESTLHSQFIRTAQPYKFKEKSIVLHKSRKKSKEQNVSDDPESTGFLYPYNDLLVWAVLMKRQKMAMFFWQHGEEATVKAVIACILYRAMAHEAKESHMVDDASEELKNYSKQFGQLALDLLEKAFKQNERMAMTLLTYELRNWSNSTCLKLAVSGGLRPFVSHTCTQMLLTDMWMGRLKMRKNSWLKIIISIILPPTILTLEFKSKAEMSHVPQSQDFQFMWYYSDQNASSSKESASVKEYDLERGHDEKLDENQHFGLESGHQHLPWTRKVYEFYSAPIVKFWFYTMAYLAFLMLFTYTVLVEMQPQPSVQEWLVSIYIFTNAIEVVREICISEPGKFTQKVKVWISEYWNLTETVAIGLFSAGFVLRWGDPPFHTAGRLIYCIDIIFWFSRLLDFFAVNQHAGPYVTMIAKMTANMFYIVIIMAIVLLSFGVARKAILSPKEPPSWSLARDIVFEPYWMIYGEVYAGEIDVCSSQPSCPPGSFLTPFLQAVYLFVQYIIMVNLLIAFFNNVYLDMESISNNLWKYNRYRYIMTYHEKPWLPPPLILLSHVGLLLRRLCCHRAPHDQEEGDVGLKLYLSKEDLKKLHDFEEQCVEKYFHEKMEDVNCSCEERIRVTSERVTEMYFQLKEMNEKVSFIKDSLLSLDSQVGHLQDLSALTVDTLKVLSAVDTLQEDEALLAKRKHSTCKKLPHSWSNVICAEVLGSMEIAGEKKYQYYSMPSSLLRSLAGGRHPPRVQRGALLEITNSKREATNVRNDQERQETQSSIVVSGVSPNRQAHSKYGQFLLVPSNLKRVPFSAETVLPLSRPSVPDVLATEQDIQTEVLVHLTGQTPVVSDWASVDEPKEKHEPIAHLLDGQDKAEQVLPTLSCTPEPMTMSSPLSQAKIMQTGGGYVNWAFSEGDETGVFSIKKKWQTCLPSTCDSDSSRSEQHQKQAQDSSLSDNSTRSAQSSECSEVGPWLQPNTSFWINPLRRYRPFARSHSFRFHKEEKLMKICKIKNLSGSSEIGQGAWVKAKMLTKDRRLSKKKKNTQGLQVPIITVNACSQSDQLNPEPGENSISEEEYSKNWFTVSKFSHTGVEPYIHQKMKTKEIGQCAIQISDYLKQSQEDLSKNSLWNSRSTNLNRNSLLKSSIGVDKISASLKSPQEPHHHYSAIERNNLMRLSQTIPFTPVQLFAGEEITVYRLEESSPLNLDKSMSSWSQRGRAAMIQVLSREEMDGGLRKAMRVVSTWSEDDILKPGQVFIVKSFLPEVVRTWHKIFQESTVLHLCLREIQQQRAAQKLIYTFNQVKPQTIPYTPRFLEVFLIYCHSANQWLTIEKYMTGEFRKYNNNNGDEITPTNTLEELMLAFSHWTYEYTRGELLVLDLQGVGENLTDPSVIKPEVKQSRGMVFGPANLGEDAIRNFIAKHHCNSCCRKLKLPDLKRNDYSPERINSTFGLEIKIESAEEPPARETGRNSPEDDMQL

[5] = biological target: T1, Dual specificity mitogen-activated protein kinase kinase 6 (Homo sapiens) (UniProt P52564); assay: Inhibition of MEK6 (unknown origin) assessed as residual activity at 100 nM by KINOMEscan analysis relative to control
T1 sequence (whole entry): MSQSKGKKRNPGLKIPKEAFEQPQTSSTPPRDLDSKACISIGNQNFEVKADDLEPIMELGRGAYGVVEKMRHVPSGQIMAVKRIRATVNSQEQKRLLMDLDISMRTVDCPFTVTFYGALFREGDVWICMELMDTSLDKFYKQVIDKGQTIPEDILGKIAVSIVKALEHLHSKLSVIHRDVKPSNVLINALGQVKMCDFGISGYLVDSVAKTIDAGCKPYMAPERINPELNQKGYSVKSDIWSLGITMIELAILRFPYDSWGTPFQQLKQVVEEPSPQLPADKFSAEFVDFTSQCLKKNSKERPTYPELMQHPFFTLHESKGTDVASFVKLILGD

[6] = biological target: Cyclin-dependent kinase-like 3 (Homo sapiens) (UniProt Q8IVW4); assay: Inhibition of CDKL3 (unknown origin) assessed as residual activity at 100 nM by KINOMEscan analysis relative to control
Cyclin-dependent kinase-like 3 (Homo sapiens), sequence (Q8IVW4 whole entry, looked up): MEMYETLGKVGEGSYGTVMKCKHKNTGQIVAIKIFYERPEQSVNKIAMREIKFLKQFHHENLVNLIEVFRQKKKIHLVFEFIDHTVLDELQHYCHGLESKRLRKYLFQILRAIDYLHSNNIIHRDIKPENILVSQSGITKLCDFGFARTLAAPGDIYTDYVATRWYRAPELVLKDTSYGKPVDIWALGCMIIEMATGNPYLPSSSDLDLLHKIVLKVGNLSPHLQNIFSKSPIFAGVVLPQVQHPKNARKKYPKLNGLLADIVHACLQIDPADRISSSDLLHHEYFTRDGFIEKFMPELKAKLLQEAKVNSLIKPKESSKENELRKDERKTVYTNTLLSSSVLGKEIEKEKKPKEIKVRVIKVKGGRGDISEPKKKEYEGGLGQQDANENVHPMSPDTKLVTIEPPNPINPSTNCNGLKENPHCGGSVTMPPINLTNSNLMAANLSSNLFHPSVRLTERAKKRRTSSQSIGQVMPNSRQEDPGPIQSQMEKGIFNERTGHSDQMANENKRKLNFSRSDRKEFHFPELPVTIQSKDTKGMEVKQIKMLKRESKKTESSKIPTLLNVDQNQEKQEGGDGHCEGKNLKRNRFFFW

[7] = biological target: Serine/threonine-protein kinase 33 (Homo sapiens) (UniProt Q9BYT3); assay: Inhibition of STK33 (unknown origin) assessed as residual activity at 100 nM by KINOMEscan analysis relative to control
Serine/threonine-protein kinase 33 (Homo sapiens), sequence (Q9BYT3 whole entry, looked up): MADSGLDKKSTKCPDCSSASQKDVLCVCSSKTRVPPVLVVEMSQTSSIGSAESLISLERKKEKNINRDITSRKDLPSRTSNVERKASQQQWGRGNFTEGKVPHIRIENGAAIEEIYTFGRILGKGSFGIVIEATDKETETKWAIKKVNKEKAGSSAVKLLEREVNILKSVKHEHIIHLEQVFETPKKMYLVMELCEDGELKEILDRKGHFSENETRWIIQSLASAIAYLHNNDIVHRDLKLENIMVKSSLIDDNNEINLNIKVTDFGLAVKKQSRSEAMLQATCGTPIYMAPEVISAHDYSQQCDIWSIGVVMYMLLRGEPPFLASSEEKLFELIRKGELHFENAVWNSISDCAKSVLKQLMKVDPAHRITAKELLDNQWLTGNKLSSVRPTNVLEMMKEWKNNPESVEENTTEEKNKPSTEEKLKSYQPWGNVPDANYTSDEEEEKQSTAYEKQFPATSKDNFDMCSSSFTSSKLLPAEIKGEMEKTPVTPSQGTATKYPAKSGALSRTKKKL

[8] = biological target: T2, Aurora kinase A (Homo sapiens) (UniProt O14965); assay: Inhibition of AURKA (unknown origin) assessed as residual activity at 100 nM by KINOMEscan analysis relative to control
T2 sequence (whole entry): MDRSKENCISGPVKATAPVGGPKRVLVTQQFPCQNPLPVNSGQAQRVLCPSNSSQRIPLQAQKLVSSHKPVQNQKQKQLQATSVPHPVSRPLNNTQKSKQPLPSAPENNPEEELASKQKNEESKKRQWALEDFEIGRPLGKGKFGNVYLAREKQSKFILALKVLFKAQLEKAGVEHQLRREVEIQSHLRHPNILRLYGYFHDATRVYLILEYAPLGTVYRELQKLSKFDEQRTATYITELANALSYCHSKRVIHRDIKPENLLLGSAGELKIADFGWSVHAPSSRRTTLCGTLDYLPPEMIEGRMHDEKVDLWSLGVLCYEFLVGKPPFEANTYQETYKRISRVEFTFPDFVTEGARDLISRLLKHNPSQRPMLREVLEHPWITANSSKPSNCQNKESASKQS

[9] = biological target: CDK4/Cyclin D3 (Homo sapiens) (UniProt P11802+P30281); assay: Inhibition of CDK4-cyclin D3 (unknown origin) assessed as residual activity at 100 nM by KINOMEscan analysis relative to control; assay type: protein-complex assay
[10] = biological target: Hepatocyte growth factor receptor (Homo sapiens) (UniProt P08581); assay: Inhibition of MET (unknown origin) assessed as residual activity at 100 nM by KINOMEscan analysis relative to control
[11] = biological target: T3, Serine/threonine-protein kinase 36 (Homo sapiens) (UniProt Q9NRP7); assay: Inhibition of STK36 (unknown origin) assessed as residual activity at 100 nM by KINOMEscan analysis relative to control
T3 sequence (whole entry): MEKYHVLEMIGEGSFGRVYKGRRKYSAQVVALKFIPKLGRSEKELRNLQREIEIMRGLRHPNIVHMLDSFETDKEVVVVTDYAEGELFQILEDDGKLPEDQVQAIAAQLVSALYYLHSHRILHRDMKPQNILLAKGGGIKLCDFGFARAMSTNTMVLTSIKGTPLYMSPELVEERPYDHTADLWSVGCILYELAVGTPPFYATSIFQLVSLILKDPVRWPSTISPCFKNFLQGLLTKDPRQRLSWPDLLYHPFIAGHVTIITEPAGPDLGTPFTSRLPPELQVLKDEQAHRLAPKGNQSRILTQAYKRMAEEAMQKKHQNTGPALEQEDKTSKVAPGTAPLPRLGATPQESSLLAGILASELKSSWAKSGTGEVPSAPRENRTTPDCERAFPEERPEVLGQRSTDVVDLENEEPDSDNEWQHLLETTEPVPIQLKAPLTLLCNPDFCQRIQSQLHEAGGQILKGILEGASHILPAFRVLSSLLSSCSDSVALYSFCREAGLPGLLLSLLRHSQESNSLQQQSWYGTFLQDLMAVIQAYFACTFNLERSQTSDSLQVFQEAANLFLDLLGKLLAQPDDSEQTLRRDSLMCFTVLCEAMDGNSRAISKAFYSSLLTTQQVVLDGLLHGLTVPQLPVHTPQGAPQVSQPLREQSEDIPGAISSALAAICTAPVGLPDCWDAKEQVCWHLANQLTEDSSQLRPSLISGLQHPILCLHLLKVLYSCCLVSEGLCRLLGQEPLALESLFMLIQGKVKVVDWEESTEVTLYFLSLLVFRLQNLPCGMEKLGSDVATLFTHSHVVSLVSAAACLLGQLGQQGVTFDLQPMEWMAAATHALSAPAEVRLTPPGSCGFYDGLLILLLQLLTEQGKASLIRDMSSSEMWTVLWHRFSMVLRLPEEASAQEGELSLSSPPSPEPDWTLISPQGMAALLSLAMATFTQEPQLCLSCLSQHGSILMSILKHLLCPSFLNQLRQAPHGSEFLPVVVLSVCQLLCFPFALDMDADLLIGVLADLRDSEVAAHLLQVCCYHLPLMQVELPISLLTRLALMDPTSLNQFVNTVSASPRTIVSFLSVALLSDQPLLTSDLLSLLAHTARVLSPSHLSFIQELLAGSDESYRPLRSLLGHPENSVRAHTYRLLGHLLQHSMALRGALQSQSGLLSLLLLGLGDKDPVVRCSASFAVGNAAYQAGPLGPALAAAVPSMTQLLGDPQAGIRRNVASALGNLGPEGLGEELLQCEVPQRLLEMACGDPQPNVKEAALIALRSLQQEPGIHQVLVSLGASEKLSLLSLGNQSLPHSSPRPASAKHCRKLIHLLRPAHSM

Phosphatidylinositol 4,5-bisphosphate 3-kinase catalytic subunit alpha isoform (Homo sapiens), P42336 [E545K], sequence (P42336 whole entry E545K, canonical isoform): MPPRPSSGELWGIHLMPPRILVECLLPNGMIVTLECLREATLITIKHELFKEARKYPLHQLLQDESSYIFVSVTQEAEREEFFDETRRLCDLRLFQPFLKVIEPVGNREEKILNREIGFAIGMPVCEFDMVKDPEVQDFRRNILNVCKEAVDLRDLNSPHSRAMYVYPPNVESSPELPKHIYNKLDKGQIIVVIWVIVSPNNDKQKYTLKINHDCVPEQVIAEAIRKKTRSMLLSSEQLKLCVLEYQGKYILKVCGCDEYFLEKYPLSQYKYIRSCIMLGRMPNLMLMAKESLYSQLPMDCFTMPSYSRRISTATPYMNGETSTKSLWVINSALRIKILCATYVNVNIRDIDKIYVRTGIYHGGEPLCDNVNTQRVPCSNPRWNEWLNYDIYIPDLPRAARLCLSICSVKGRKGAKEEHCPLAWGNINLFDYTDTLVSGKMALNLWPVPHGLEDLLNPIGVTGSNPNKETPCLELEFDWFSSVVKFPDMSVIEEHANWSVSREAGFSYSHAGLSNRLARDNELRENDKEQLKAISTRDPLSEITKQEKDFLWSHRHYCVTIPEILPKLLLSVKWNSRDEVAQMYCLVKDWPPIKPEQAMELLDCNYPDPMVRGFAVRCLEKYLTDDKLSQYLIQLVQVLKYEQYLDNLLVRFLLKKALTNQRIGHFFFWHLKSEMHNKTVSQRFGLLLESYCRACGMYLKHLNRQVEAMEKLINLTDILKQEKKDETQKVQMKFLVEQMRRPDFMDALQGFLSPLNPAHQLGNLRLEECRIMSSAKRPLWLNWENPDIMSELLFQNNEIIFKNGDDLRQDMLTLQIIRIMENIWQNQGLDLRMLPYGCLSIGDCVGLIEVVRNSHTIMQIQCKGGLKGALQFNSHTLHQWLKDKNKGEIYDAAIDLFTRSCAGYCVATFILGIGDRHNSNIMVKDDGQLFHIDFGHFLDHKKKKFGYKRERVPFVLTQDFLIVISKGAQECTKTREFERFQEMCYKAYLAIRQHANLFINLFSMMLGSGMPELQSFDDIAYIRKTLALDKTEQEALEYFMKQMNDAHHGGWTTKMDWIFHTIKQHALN

**Q.** How did the Activity [1] turn out when `COc1cc2ncnc(N[C@H](C)c3cccc4ccccc34)c2cc1OC` was run?
**A.** Its Activity is 75%.

**Q.** And the Activity [2]?
**A.** The Activity was 100%.

**Q.** And the Activity [3]?
**A.** Its Activity is 92%.

**Q.** What about the Activity [4] of the same compound?
**A.** The Activity was 84%.

**Q.** And the Activity [5]?
**A.** The Activity was 98%.

**Q.** What about the Activity [6] of the same compound?
**A.** The Activity was 100%.

**Q.** What about the Activity [7] of the same compound?
**A.** The Activity was 70%.

**Q.** And the Activity [8]?
**A.** Its Activity is 100%.

**Q.** And the Activity [9]?
**A.** The Activity was 100%.

**Q.** And the Activity [10]?
**A.** The Activity was 100%.

**Q.** And the Activity [11]?
**A.** The Activity was 80%.
